This note sets out measurements from patent US4186194A (priority 1973, dated 1980).

Molecules are shown by their SMILES.

The subject of data set [1] is Female Hartley guinea-pigs. Kind of data set: Adjuvant activity: rates of antibodies with respect to ovalbumin after injection with incomplete Freund adjuvant and ovalbumin. As to conditions: Table 2; dose 25 μg/animal. Type of data set: in vivo, guinea-pig. The procedure: Female Hartley guinea-pigs of 300-350 g received, in the plantar pad of each of the two rear paws, an emulsion composed of equal parts of incomplete Freund adjuvant and a physiological solution containing ovalbumin (5 mg/guinea-pig) and the preparation to be tested. The incomplete Freund adjuvant (FIA) (that is to say not containing mycobacteria), is the complete adjuvant (FCA) marketed by the DIFCO company were used as controls.
The rates of antibodies with respect to ovalbumin were determined three weeks after injection. The antibody rate is expressed in μg/ml of serum of the antigen-antibody precipitate at the point of equivalents.

Data set [2] concerns Female Hartley guinea-pigs. Put plainly: Delayed hypersensitivity to ovalbumin (cutaneous reaction). Type of data set: in vivo, guinea-pig. As to conditions: Table 2, adjuvant dose 25 μg.
Protocol: The delayed hypersensitivity to ovalbumin was measured by cutaneous reaction four weeks after injection; it is expressed by the diameter in millimeters of the erythema (E), of the induration (I) or the necrosis (N), forty-eight hours after sub-cutaneous injection of 10 or 100 μg of ovalbumin.
The subject of data set [3] is tumor cells (mastocytome). Kind of data set: Antitumor effect of peritoneal macrophages activated in vivo. Particulars: macrophages of mice injected intraperitoneally with 30 μg, recovered 4 days later, incubated with tumor cells. Type of data set: cell-based. The procedure:
The following test takes advantage of the finding made by several authors that macrophages become cytotoxic with respect to neoplasic cells, when they have previously been activated by immuno-adjuvant substances.
Two groups of three mice were injected intraperitoneally with 30 μg of each of the substances respectively. The mice were sacrificed 4 days later. There macrophages were recovered according to the technique of D. Juy, C. Bona and L. Chedid, C. R. Acad. Sc. Paris, 1974, 268, Serie D, 1859 and incubated in the presence of tumor cells (mastocytome).
The inhibition of the mastocytome increase was measured by reference to the reduced incorporation of radioactive thymidine as compared to that of controls.

Another data set concerns mastocytome. Kind of data set: Activation of macrophages in vitro (cytotoxicity with respect to the mastocytome). In kind it is cell-based. As to conditions: incubated directly with normal macrophages and with macrophages from an inflammatory peritoneal exsudate (both cases). The procedure:
The activity of the muramyl-dipeptide was measured by directly incubating it with both normal macrophages and macrophages originating from an inflammatory peritoneal exsudate.

A further data set relates to guinea pigs. Kind of data set: Delayed hypersensitivity with respect to the substances in guinea pigs treated with Freund's complete adjuvant. Type of data set: in vivo, guinea pig. As to conditions: 5 and 10 μg in the dermis of guinea pigs, three weeks after ovalbumine with FIA or FCA. The procedure:
Three groups of guinea pigs were injected (in their foot pads) with 1 mg of ovalbumine together with:
(a) Freund's incomplete adjuvant (FIA) and
(b) Freund's complete adjuvent (FCA) respectively.
The delayed hypersensitivity was measured by subcutaneous reaction three weeks thereafter, by injecting 5 mg of ovalbumine and of 5 and 10 μg of either the substance BB and the muramyl-dipeptide in the dermis of the animals.

The test system of another data set is surrenalectomized mice. Put plainly: Toxicity in surrenalectomized mice. Type of data set: in vivo. Particulars: 30 μg dosage.

In the case of `CC(=O)N[C@@H]1[C@@H](O[C@H](C)C(=O)N[C@@H](C)C(=O)N[C@H](CCC(=O)O)C(N)=O)[C@H](O)[C@@H](CO)O[C@H]1O` [N-acetylmuramyl-L-Ala-D-Glu-NH2, 2-(2-acetamido-2-desoxy-3-O-D-glucopyranosyl)-D-propionyl-L-Ala-(γ-OH)-D-α-Glu NH2], in data set [1], the “Antibody/antiovalbumin, Average” value worked out at 5210 µg/mL; the “Antibody/antiovalbumin, animal 1” value was 5280 µg/mL; the “Antibody/antiovalbumin, animal 2” value stood at 6000 µg/mL; the “Antibody/antiovalbumin, animal 3” value is 2960 µg/mL. Further, in data set [1], the “Antibody/antiovalbumin, animal 4” value came out at 6880 µg/mL and the “Antibody/antiovalbumin, animal 5” value was found to be 4960 µg/mL. Besides, the “Delayed Hypersensitivity, erythema (E)” value in data set [2] (10 μg ovalbumin injection) came to 9 millimeters. In data set [2] (100 μg ovalbumin injection), the “Delayed Hypersensitivity, erythema (E)” value was 17 millimeters. The “Inhibition of the mastocytome increase (reduced incorporation of radioactive thymidine compared to controls)” value in data set [3] is listed as 84%. Further, the “Increase in vitro of the cytotoxicity of the macrophages with respect to the mastocytome” value in the data set with mastocytome is “capable of increasing in vitro the cytotoxicity of the macrophages”. Moreover, the “Delayed hypersensitivity reaction to the substance” value with guinea pigs is listed as “dit not induce any detectable reaction”. In addition, the Toxicity entry in the data set with surrenalectomized mice was “no detectable toxicity”.
